Laboratory results from ChEMBL document CHEMBL1201862, “PubChem BioAssay data set” (2004).
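Cultured in 96-well plates, cells were exposed to test compound for 48 hours across five concentrations. Abbreviation: GI50, concentration required for 50% inhibition of growth.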 Calls of active or inactive are those of the source. No stated cut-off is given here; in the data, active = GI50 up to about 1.1 µM and inactive = higher.

Assays:
Assay in all cases: DTP human tumour cell line panel, 48 h
[1] = tested on: SK-MEL-2
[2] = tested on: MDA-N
[3] = tested on: IGROV-1
[4] = tested on: A549
[5] = tested on: HT-29
[6] = tested on: COLO 205
[7] = tested on: OVCAR-3
[8] = tested on: SR
[9] = tested on: U-251
[10] = tested on: MOLT-4
[11] = tested on: HCC 2998
[12] = tested on: SF-539
[13] = tested on: NCI-H226
[14] = tested on: ACHN
[15] = tested on: HCT-15
[16] = tested on: HOP-62
[17] = tested on: OVCAR-4
[18] = tested on: RPMI-8226
[19] = tested on: UO-31

Structure (SMILES)	GI50 [1]	GI50 [2]	GI50 [3]	GI50 [4]	GI50 [5]	GI50 [6]	GI50 [7]	GI50 [8]	GI50 [9]	GI50 [10]	GI50 [11]	GI50 [12]	GI50 [13]	GI50 [14]	GI50 [15]	GI50 [16]	GI50 [17]	GI50 [18]	GI50 [19]
CN(C)c1ccc(/C=N/n2c(-c3ccccc3)nc3ccccc3c2=O)cc1	82.2 µM (inactive)	43.1 µM (inactive)	> 100 µM (inactive)	53.5 µM (inactive)	40 µM (inactive)	48.5 µM (inactive)	> 100 µM (inactive)	14.1 µM (inactive)	63.4 µM (inactive)	34.4 µM (inactive)	> 100 µM (inactive)	> 100 µM (inactive)	71.6 µM (inactive)	18.5 µM (inactive)	27.5 µM	> 100 µM (inactive)	47.9 µM (inactive)	20.4 µM (inactive)	–
COC(=O)CN(CC(=O)NCCCBr)C1CCCCC1N(CC(=O)OC)CC(=O)OC (configuration not stated)	> 100 µM (inactive)	> 100 µM (inactive)	> 100 µM (inactive)	> 100 µM (inactive)	> 100 µM (inactive)	> 100 µM (inactive)	> 100 µM (inactive)	> 100 µM (inactive)	> 100 µM (inactive)	> 100 µM (inactive)	> 100 µM (inactive)	> 100 µM (inactive)	> 100 µM (inactive)	> 100 µM (inactive)	> 100 µM	> 100 µM (inactive)	> 100 µM (inactive)	> 100 µM (inactive)	84.7 µM (inactive)
Cc1ccc(C)c(C(=N)c2ccccc2Cc2ccccc2)c1	15.3 µM (inactive)	23 µM (inactive)	25.6 µM (inactive)	24.2 µM (inactive)	12.9 µM (inactive)	26.9 µM (inactive)	13.3 µM (inactive)	19.2 µM (inactive)	15.5 µM (inactive)	15.1 µM (inactive)	15.9 µM (inactive)	17.9 µM (inactive)	16.4 µM (inactive)	18.2 µM (inactive)	24.7 µM	24.3 µM (inactive)	19.4 µM (inactive)	12.3 µM (inactive)	27.3 µM (inactive)
CC1=C(C(=O)N[C@@H](Cc2ccccc2)C(=O)O)N2C(=O)[C@@H](NC(=O)[C@@H](N)CC(C)C)[C@H]2SC1	> 100 µM (inactive)	> 100 µM (inactive)	> 100 µM (inactive)	> 100 µM (inactive)	–	> 100 µM (inactive)	> 100 µM (inactive)	> 100 µM (inactive)	> 100 µM (inactive)	> 100 µM (inactive)	> 100 µM (inactive)	> 100 µM (inactive)	> 100 µM (inactive)	> 100 µM (inactive)	> 100 µM	–	> 100 µM (inactive)	> 100 µM (inactive)	–
COC(=O)c1n[nH]c(C)c1/N=N/N(C)CCC#N	23.6 µM (inactive)	47.5 µM (inactive)	2.13 µM (inactive)	16.1 µM (inactive)	23.3 µM (inactive)	13.4 µM (inactive)	18.7 µM (inactive)	5.79 µM (inactive)	16.7 µM (inactive)	3.33 µM (inactive)	19.5 µM (inactive)	15.2 µM (inactive)	12.8 µM (inactive)	11.6 µM (inactive)	14.2 µM	18.8 µM (inactive)	12.9 µM (inactive)	10.2 µM (inactive)	0.301 µM (active)
Cc1c(-c2ccccc2)c(C#N)c2nnn(C)c(=O)n12	> 100 µM (inactive)	> 100 µM (inactive)	> 100 µM (inactive)	> 100 µM (inactive)	> 100 µM (inactive)	> 100 µM (inactive)	> 100 µM (inactive)	65.6 µM (inactive)	> 100 µM (inactive)	–	> 100 µM (inactive)	> 100 µM (inactive)	> 100 µM (inactive)	> 100 µM (inactive)	> 100 µM	44 µM (inactive)	> 100 µM (inactive)	> 100 µM (inactive)	> 100 µM (inactive)
CC1=NC(=Cc2ccccc2O)C(=O)N1n1c(-c2ccccc2)nc2ccccc2c1=O	–	41.3 µM (inactive)	32.1 µM (inactive)	35.1 µM (inactive)	32.4 µM (inactive)	34.5 µM (inactive)	26.7 µM (inactive)	32.5 µM (inactive)	38.4 µM (inactive)	20.6 µM (inactive)	38.1 µM (inactive)	26.7 µM (inactive)	51.1 µM (inactive)	29.7 µM (inactive)	39.4 µM	55.1 µM (inactive)	27.5 µM (inactive)	48.5 µM (inactive)	32.9 µM (inactive)
Cc1ccc([N+](=O)[O-])cc1S(=O)(=O)Nc1ccc(C2=NOC(c3ccco3)C2)cc1 (configuration not stated)	16 µM (inactive)	6.44 µM (inactive)	24 µM (inactive)	21.9 µM (inactive)	22.8 µM (inactive)	20.1 µM (inactive)	14.8 µM (inactive)	3.33 µM (inactive)	–	15.1 µM (inactive)	17.2 µM (inactive)	23 µM (inactive)	17 µM (inactive)	21.3 µM (inactive)	10.4 µM	12.6 µM (inactive)	14.9 µM (inactive)	18.9 µM (inactive)	16.9 µM (inactive)
COC1=CC(=O)C2=C(C1=O)[C@H]1CC[C@]3(C)[C@@H](O)CC[C@H]3[C@@H]1CC2	13.9 µM (inactive)	17.5 µM (inactive)	21.9 µM (inactive)	18.4 µM (inactive)	4.71 µM (inactive)	10.7 µM (inactive)	17.9 µM (inactive)	23.3 µM (inactive)	17 µM (inactive)	3.48 µM (inactive)	20.7 µM (inactive)	16.9 µM (inactive)	17.7 µM (inactive)	18 µM (inactive)	18 µM	16.2 µM (inactive)	17.2 µM (inactive)	19.3 µM (inactive)	20.7 µM (inactive)
Nc1ccc(Oc2ccc(C3(c4ccc(Oc5ccc(N)cc5)cc4)C4CC5C6CC7CC5C3C(C7)C6C4)cc2)cc1	> 100 µM (inactive)	14.5 µM (inactive)	> 52.1 µM (inactive)	0.706 µM (active)	0.774 µM (active)	42.4 µM (inactive)	2.01 µM (inactive)	9.2 µM (inactive)	1.03 µM (active)	6.08 µM (inactive)	1.07 µM (active)	42.5 µM (inactive)	> 55.8 µM (inactive)	48.5 µM (inactive)	20.1 µM	72.9 µM (inactive)	18.8 µM (inactive)	14.8 µM (inactive)	5.24 µM (inactive)
Cc1c(C(=O)NNc2ccccc2)n2c(S)nnc2c2ccccc12	> 100 µM (inactive)	> 100 µM (inactive)	> 100 µM (inactive)	> 100 µM (inactive)	> 100 µM (inactive)	> 100 µM (inactive)	> 100 µM (inactive)	74.3 µM (inactive)	> 100 µM (inactive)	83.2 µM (inactive)	71.8 µM (inactive)	> 100 µM (inactive)	> 100 µM (inactive)	> 100 µM (inactive)	> 100 µM	> 100 µM (inactive)	> 100 µM (inactive)	58.2 µM (inactive)	73.1 µM (inactive)
